# Results from patent US11827543B2, “Method for continuous supply of superoxide-containing peracetate oxidant solution” (Clean Chemistry, Inc., priority 2014, dated 2023).
# Experiments:
# [1] = test system: sulfate reducing bacteria (SRB); experiment: Sulfate reducing bacteria serial dilution culture (Intertek SRB media); format: cell-based; details: produced water, Example 17, 30 min contact, no grow back
# [2] = test system: acid producing bacteria (APB); experiment: Acid producing bacteria serial dilution culture (Intertek APB media); format: cell-based; details: produced water, Example 17, 30 min contact, no grow back
# Experimental: The water's color rapidly turned orange and the ORP increased to about 700 mV vs SHE. During the first 5 to 10 minutes of slow mixing there was some floc formation. After 20 minutes stirring was ceased and the flocculated solids were allowed to settle, however the water remained hazy orange. […] The ATP concentration was reduced by about 93% from the untreated water concentration and the bioassay results indicated at least 4 log reductions in acid producing and sulfate reducing bacteria relative to the untreated water's ATP concentration (approximately 1.8×10^6 microbial equivalents per mL).
# Water parameters were measured by a variety of methods. The pH was measured using a high sodium electrode (Oakton model 35805-05) with three point calibration and automatic temperature correction. The ORP (oxidative-reductive potential) of solutions was measured using an Oakton model 35805-15 ORP probe calibrated to the standard hydrogen electrode (SHE) using Thermo/Orion ORP standard 967901. Sodium ion concentration was measured using a Cole-Parmer ion selective electrode, EW-27504-30, with two point calibration of a sodium standard solution of NaCl. Chloride ion concentration was measured using a Cole-Parmer ion selective electrode, SC-27504-08, with two point calibration of a chloride standard solution of NaCl. All measurements using HACH methods were measured using a HACH DR900 colorimeter. Calcium, magnesium and total hardness concentrations were measured using HACH method 8030. Sulfate concentration was measured using HACH method 10248. Aluminum concentration was measured using HACH method 8012. Iron concentration was measured using HACH method 10249 modified with a longer reaction time to minimize interferences from organic impurities. Total suspended solids (TSS) concentration was measured using HACH method 8006 modified for smaller volumes. Turbidity was measured using HACH method 8237. […] Acid producing bacteria (ABP) and sulfate reducing bacteria (SRB) cell culture concentrations were measured with standard 1 mL serial dilutions using Intertek APB and SRB culture media, 1% salinity.
# [3] = Gel breaking of guar gum mixture; details: for Viscosity at 2 Hour Contact Time: 10 g/L guar gum, 35-40 °C
# Experimental: Example 15: Gel Breaking ability for well squeeze to remove “polymer damage”. The use of the sodium peracetate oxidant formulation was tested for the depolymerization and break down of guar gum. […] The guar mixture was made by rapidly mixing 10 g/L food grade guar gum powder into a 10 g/L sodium chloride solution in distilled water. The blended mixture was heated to about 35-40° C. in a heated water bath for at least one hour to fully hydrate the guar. The mixture appeared translucent with fine, milky white suspended solids. […] The first was a control sample to which no oxidant was added. The remaining samples had increasing amounts of sodium peracetate oxidant added to them. The oxidant was prepared as described in Example 4 and the pH was adjusted to about 9.1 with sodium bisulfate before use. The oxidant was rapidly mixed with the guar mixture resulting in a pale yellow color. The mixtures were placed in a water bath at about 35-40° C. and the yellow color gradually faded away over the next hour. After two hours the samples were cooled to room temperature.
# [4] = 29 mg/L, untreated >>10,000 cells/mL
smiles,measurement,setting,value
"CC(=O)O[O-].[Na+] [sodium peracetate oxidant, sodium peracetate]",SRB (cells/mL and log reduction),[1]; 29 mg/L plus 5 mg/L floc aid,5 log (no grow
same,SRB (cells/mL and log reduction),[1]; [4],5 log (no grow
same,SRB (cells/mL and log reduction),[1]; 52 mg/L,5 log (no grow
same,APB (cells/mL and log reduction),[2]; 29 mg/L plus 5 mg/L floc aid,5 log (no grow
same,APB (cells/mL and log reduction),[2]; [4],5 log (no grow
same,APB (cells/mL and log reduction),[2]; 52 mg/L,5 log (no grow
same,Viscosity at 2 Hour Contact Time,[3]; oxidant conc. 65 mg/L,same as initial
same,Viscosity at 2 Hour Contact Time,[3]; oxidant conc. 220 mg/L,slightly reduced
same,Viscosity at 2 Hour Contact Time,[3]; oxidant conc. 440 mg/L,very reduced
same,preservation of guar mixture on standing at room temperature,"[3]; about 65 mg/L oxidant, control lost viscosity overnight, biofilm after a week",retained its original viscosity and milky color for at least a week
